Reference: US20240208907A1, “GPR52 MODULATORS AND METHODS OF USE” (Neurocrine Biosciences, Inc., priority 2021, published 2024)
Where a name gives a salt, the structure may show the parent alone.

These compounds were tested against T1, recombinant human GPR52 (Homo sapiens, UniProt Q9Y2T5) (assay: GPR52 activity: TR-FRET cAMP assay (LANCE Ultra cAMP Kit)). Settings: Flp-In-CHO cells stably expressing recombinant human GPR52; cAMP production, normalized to positive control.
T1 construct: expressed in transfected cells
T1 sequence (Q9Y2T5 whole entry): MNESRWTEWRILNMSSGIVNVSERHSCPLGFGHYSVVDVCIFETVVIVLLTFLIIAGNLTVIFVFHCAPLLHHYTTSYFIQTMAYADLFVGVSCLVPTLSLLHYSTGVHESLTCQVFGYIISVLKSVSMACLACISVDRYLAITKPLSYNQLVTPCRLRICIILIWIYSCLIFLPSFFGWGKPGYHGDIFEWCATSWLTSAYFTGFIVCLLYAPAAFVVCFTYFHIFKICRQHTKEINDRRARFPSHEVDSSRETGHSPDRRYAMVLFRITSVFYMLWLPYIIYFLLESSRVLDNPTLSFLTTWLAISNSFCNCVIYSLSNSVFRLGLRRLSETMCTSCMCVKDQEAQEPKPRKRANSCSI
Type: cell-based
Procedure: TR-FRET cAMP assays were performed using commercially available assay kits (LANCE™ Ultra cAMP Kit). Controls and compounds were solubilized in DMSO using ½ log dilution to generate duplicate 10-point dose response curves in 384-well polypropylene compound plates. Sixty nanoliters of the diluted compounds were transferred into 384-well NBS assay plates and further diluted to 1× with the addition of 2000 cells per well. Flp-In™-CHO cells that stably express recombinant human GPR52.
Cells were harvested with cell stripper and resuspended in Stimulation Buffer (5 mM HEPES, 0.1% bovine serum albumin (BSA), 0.5 mM IBMX, pH 7.4). After thirty minutes incubation at room temperature, detection reagents were added to each well. Plates were then incubated for 30 minutes at room temperature. The LANCE™ Ultra cAMP assay uses time-resolved fluorescence resonance energy transfer (TR-FRET) to detect cAMP production; this signal was quantified using a Pherastar multi-mode plate reader.
Dose-response curves were generated from the fluorescence counts normalized to the positive control. E EC50 values were obtained using a nonlinear regression curve-fitting program.

Row | Structure (SMILES) | EC50
1 | CS(=O)(=O)c1cccc(Cc2ccnc(-c3ccc(C(N)=O)cc3)c2)c1 [Compound 27, 4-{4-[(3-methanesulfonylphenyl)methyl]pyridin-2-yl}benzamide] | 101 to 1000 nM
2 | NC(=O)c1ccc(-c2cc(Cc3cc(C(F)(F)F)ccc3F)ccn2)cc1 [Compound 39, 4-(4-{[2-fluoro-5-(trifluoromethyl)phenyl]methyl}pyridin-2-yl)benzamide] | 101 to 1000 nM
3 | Cc1cc(-c2cc(Cc3cccc(C(F)(F)F)c3)ccn2)ccc1C(=O)NCCO [Compound 36, N-(2-hydroxyethyl)-2-methyl-4-(4-{[3-(trifluoromethyl)phenyl]methyl}pyridin-2-yl)benzamide] | 25 to 100 nM
4 | NC(=O)Cc1cccc(-c2cc(Cc3cccc(C(F)(F)F)c3)ccn2)c1 [Compound 16, 2-[3-(4-{[3-(trifluoromethyl)phenyl]methyl}pyridin-2-yl)phenyl]acetamide] | 25 to 100 nM
5 | NC(=O)c1ccc(-c2cc(Cc3cccc(OC(F)(F)F)c3)ccn2)cc1 [Compound 26, 4-(4-{[3-(trifluoromethoxy)phenyl]methyl}pyridin-2-yl)benzamide] | 101 to 1000 nM
6 | NC(=O)c1cccc(-c2cc(Cc3cc(F)cc(C(F)(F)F)c3)ccn2)c1 [Compound 17, 3-(4-{[3-fluoro-5-(trifluoromethyl)phenyl]methyl}pyridin-2-yl)benzamide] | 25 to 100 nM
7 | Cc1cc(-c2cc(C(O)c3cccc(C(F)(F)F)c3)ccn2)ccc1C(N)=O (centres unmarked) [Compound 43, 4-(4-{hydroxy [3-(trifluoromethyl)phenyl]methyl}pyridin-2-yl)-2-methylbenzamide] | > 1000 nM
8 | NC(=O)C1CCN(c2cc(Cc3cccc(C(F)(F)F)c3)ccn2)CC1 [Compound 41, 1-(4-{[3-(trifluoromethyl)phenyl]methyl}pyridin-2-yl)piperidine-4-carboxamide] | 25 to 100 nM
9 | NC(=O)c1ccc(-c2cc(Cc3cc(F)cc(Cl)c3)ccn2)cc1 [Compound 21, 4-{4-[(3-chloro-5-fluorophenyl)methyl]pyridin-2-yl}benzamide] | 101 to 1000 nM
10 | NC(=O)c1ccc(-c2cc(Cc3cc(F)cc(C(F)(F)F)c3)ccn2)cc1 [Compound 14, 4-(4-{[3-fluoro-5-(trifluoromethyl)phenyl]methyl}pyridin-2-yl)benzamide] | 25 to 100 nM
11 | Cc1cc(-c2cc(Cc3cccc(C(F)(F)F)c3)ccn2)ccc1C(=O)N1CCNCC1 [Compound 35, 1-[2-methyl-4-(4-{[3-(trifluoromethyl)phenyl]methyl}pyridin-2-yl)benzoyl]piperazine hydrochloride] | < 25 nM
12 | Cc1cc(F)cc(Cc2ccnc(-c3cccc(C(N)=O)c3)c2)c1 [Compound 22, 3-{4-[(3-fluoro-5-methylphenyl)methyl]pyridin-2-yl}benzamide] | 101 to 1000 nM
13 | N#Cc1cc(Cc2ccnc(-c3ccc4c(c3)CCNC4=O)c2)ccc1F [Compound 42, 2-fluoro-5-{[2-(1-oxo-1,2,3,4-tetrahydroisoquinolin-6-yl)pyridin-4-yl]methyl}benzonitrile] | 101 to 1000 nM
14 | NC(=O)c1cccc(-c2cc(Cc3cc(F)cc(Cl)c3)ccn2)c1 [Compound 25, 3-{4-[(3-chloro-5-fluorophenyl)methyl]pyridin-2-yl}benzamide] | 101 to 1000 nM
15 | COc1ccc(Cc2ccnc(-c3ccc(C(N)=O)cc3)c2)cc1F [Compound 20, 4-{4-[(3-fluoro-4-methoxyphenyl)methyl]pyridin-2-yl}benzamide] | 101 to 1000 nM
16 | NC(=O)Cc1ccc(-c2cc(Cc3cccc(C(F)(F)F)c3)ccn2)cc1 [Compound 18, 2-[4-(4-{[3-(trifluoromethyl)phenyl]methyl}pyridin-2-yl)phenyl]acetamide] | 25 to 100 nM
17 | Cc1cc(Cc2ccnc(-c3ccc(C(N)=O)cc3)c2)ccc1F [Compound 10, 4-{4-[(4-fluoro-3-methylphenyl)methyl]pyridin-2-yl}benzamide] | 25 to 100 nM
18 | Cc1cc(-c2cc(Cc3cccc(C(F)(F)F)c3)ccn2)ccc1C(=O)NCCCO [Compound 37, N-(3-hydroxypropyl)-2-methyl-4-(4-{[3-(trifluoromethyl)phenyl]methyl}pyridin-2-yl)benzamide] | 25 to 100 nM
19 | Cc1cc(Cc2ccnc(-c3cccc(C(N)=O)c3)c2)ccc1F [Compound 19, 3-{4-[(4-fluoro-3-methylphenyl)methyl]pyridin-2-yl}benzamide] | 25 to 100 nM
20 | COc1ccc(Cc2ccnc(-c3cccc(C(N)=O)c3)c2)cc1F [Compound 29, 3-{4-[(3-fluoro-4-methoxyphenyl)methyl]pyridin-2-yl}benzamide] | 101 to 1000 nM
21 | NC(=O)c1ccc(-c2cc(Cc3ccc(F)c(C(F)(F)F)c3)ccn2)cc1 [Compound 23, 4-(4-{[4-fluoro-3-(trifluoromethyl)phenyl]methyl}pyridin-2-yl)benzamide] | 101 to 1000 nM

Second part, the compound after the results:

Row | EC50 | Structure (SMILES)
22 | 25 to 100 nM | Cc1cc(-c2cc(Cc3ccc(F)c(C#N)c3)ccn2)ccc1C(N)=O [Compound 8, 4-{4-[(3-cyano-4-fluorophenyl)methyl]pyridin-2-yl}-2-methylbenzamide]
23 | > 1000 nM | N#Cc1cc(F)cc(Cc2ccnc(-c3ccc(C(N)=O)cc3)c2)c1 [Compound 40, 4-{4-[(3-cyano-5-fluorophenyl)methyl]pyridin-2-yl}benzamide]
24 | 101 to 1000 nM | N#Cc1cc(Cc2ccnc(-c3ccc(C(N)=O)c(F)c3)c2)cc(F)c1F [Compound 24, 4-{4-[(3-cyano-4,5-difluorophenyl)methyl]pyridin-2-yl}-2-fluorobenzamide]
25 | 25 to 100 nM | Cc1cc(-c2cc(Cc3cc(F)c(F)c(C#N)c3)ccn2)cc(F)c1C(N)=O [Compound 15, 4-{4-[(3-cyano-4,5-difluorophenyl)methyl]pyridin-2-yl}-2-fluoro-6-methylbenzamide]
26 | < 25 nM | N#Cc1cc(Cc2ccnc(-c3ccc(C(N)=O)c(C(F)(F)F)c3)c2)cc(F)c1F [Compound 6, 4-{4-[(3-cyano-4,5-difluorophenyl)methyl]pyridin-2-yl}-2-(trifluoromethyl)benzamide]
27 | < 25 nM | Cc1cc(-c2cc(Cc3cc(F)c(F)c(Cl)c3)ccn2)ccc1C(N)=O [Compound 2, 4-{4-[(3-chloro-4,5-difluorophenyl)methyl]pyridin-2-yl}-2-methylbenzamide]
28 | 25 to 100 nM | Cc1cc(-c2cc(Cc3cccc(S(C)(=O)=O)c3)c(F)cn2)ccc1C(N)=O [Compound 31, 4-{5-fluoro-4-[(3-methanesulfonylphenyl)methyl]pyridin-2-yl}-2-methylbenzamide hydrochloride]
29 | 25 to 100 nM | Cc1cc(-c2cccc(Cc3cccc(C(F)(F)F)c3)n2)ccc1C(N)=O [Compound 12, 2-methyl-4-(6-{[3-(trifluoromethyl)phenyl]methyl}pyridin-2-yl)benzamide]
30 | < 25 nM | Cc1cc(-c2cc(Cc3cc(F)cc(C#N)c3)ccn2)ccc1C(N)=O [Compound 3, 4-{4-[(3-cyano-5-fluorophenyl)methyl]pyridin-2-yl}-2-methylbenzamide]
31 | < 25 nM | Cc1cc(-c2cc(Cc3cccc(C(F)(F)F)c3)ccn2)ccc1C(N)=O [Compound 1, 2-methyl-4-(4-{[3-(trifluoromethyl)phenyl]methyl}pyridin-2-yl)benzamide]
32 | 101 to 1000 nM | N#Cc1cc(Cc2ccnc(-c3ccc(C(N)=O)cc3)c2)cc(F)c1F [Compound 30, 4-{4-[(3-cyano-4,5-difluorophenyl)methyl]pyridin-2-yl}benzamide hydrochloride]
33 | 25 to 100 nM | COc1cc(-c2cc(Cc3cc(F)c(F)c(C#N)c3)ccn2)ccc1C(N)=O [Compound 13, 4-{4-[(3-cyano-4,5-difluorophenyl)methyl]pyridin-2-yl}-2-methoxybenzamide]
34 | 101 to 1000 nM | Cc1cc(F)cc(Cc2ccnc(-c3ccc(C(N)=O)cc3)c2)c1 [Compound 28, 4-{4-[(3-fluoro-5-methylphenyl)methyl]pyridin-2-yl}benzamide]
35 | 25 to 100 nM | Cc1cc(-c2cc(Cc3cc(F)c(F)c(C#N)c3)ccn2)ccc1C(N)=O [Compound 7, 4-{4-[(3-cyano-4,5-difluorophenyl)methyl]pyridin-2-yl}-2-methylbenzamide]
36 | 101 to 1000 nM | N#Cc1cc(Cc2ccnc(-c3cccc(CC(N)=O)c3)c2)cc(F)c1F [Compound 33, 2-(3-{4-[(3-cyano-4,5-difluorophenyl)methyl]pyridin-2-yl}phenyl)acetamide]
37 | < 25 nM | Cc1cc(-c2cc(Cc3cncc(S(C)(=O)=O)c3)ccn2)ccc1C(N)=O [Compound 44, 4-{4-[(5-methanesulfonylpyridin-3-yl)methyl]pyridin-2-yl}-2-methylbenzamide]
38 | 101 to 1000 nM | Cc1cc(-c2cc(Cc3cccc(S(=O)(=O)C(F)(F)F)c3)ccn2)ccc1C(N)=O [Compound 34, 2-methyl-4-{4-[(3-trifluoromethanesulfonylphenyl)methyl]pyridin-2-yl}benzamide hydrochloride]
39 | 25 to 100 nM | Cc1cc(-c2cc(Cc3cc(F)c(F)c(C#N)c3)c(F)cn2)ccc1C(N)=O [Compound 9, 4-{4-[(3-cyano-4,5-difluorophenyl)methyl]-5-fluoropyridin-2-yl}-2-methylbenzamide]
40 | 25 to 100 nM | Cc1cc(-c2cc(Cc3cccc(S(C)(=O)=O)c3)ccn2)ccc1C(N)=O [Compound 11, 4-{4-[(3-methanesulfonylphenyl)methyl]pyridin-2-yl}-2-methylbenzamide hydrochloride]
41 | < 25 nM | CSc1cccc(Cc2ccnc(-c3ccc(C(N)=O)c(C)c3)c2)c1 [Compound 5, 2-methyl-4-(4-{[3-(methylsulfanyl)phenyl]methyl}pyridin-2-yl)benzamide]
